Patent US11878070B2, “Silk-based moisturizer compositions and methods thereof” (Evolved By Nature, Inc., priority 2015, dated 2024)

Assays:
Format in all cases: physicochemical
[1] = Silk gel formation (days to gelation / time to gel); conditions: 100 mg of vitamin C derivative in 15 mL of 2% silk solution
Excerpt: Samples 1-10 were used to examine the effect of silk to vitamin C ratio on serum gelation. Samples 1-3 with less vitamin C gelled quicker than samples 4 and 5. All other conditions were kept constant. Samples 6-8 with less vitamin C gelled quicker than samples 9 and 10. All other conditions were kept constant. It is concluded that decreasing the ratio of silk to vitamin C (increasing the amount of vitamin C) will lengthen the time to gel creation.
Samples 1, 3, 6, 8, O-1, O-2, O-3, and O-4 were used to examine the effect of temperature treatment on serum gelation time. Samples 1, 6, O-1, and O-2 were identical other than temperature treatment. Samples 3, 8, O-3, and O-4 were identical other than temperature treatment. The two groups differed in silk to vitamin C ratio. Time to serum gelation was directly related to temperature treatment with a higher temperature resulting in quicker serum gelation.
All treatments of silk solution for gel solution were in a conical tube at room temperature unless otherwise stated. […] Temperature affected gel creation time with higher temperatures resulting in quicker gel times. 50° C. treatment gelled in as quick as 2 days, 37° C. treatment gelled in as quick as 3 days, room temperature treatment gelled in 5-8 days and storage in a refrigerator took at least 39 days to gel. The effects of additives on gel creation were dependent on the additive. Vitamin E, Rosemary Oil and Rose Oil all had no effect on gel creation. […] Each also required the presence of vitamin C to gel. Lemon juice from a fresh lemon, pre-squeezed lemon juice from a plastic lemon container and lemon grass oil did affect gel creation. […] Both lemon juice types were able to cause gelation without the presence of vitamin C. This occurred in the same number of days as with vitamin C. The lemongrass oil was able to decrease the number of days to gelation to 2-3 days. Ail additives appeared soluble other than lemongrass oil and rose oil. Rose oil remained in yellow bubbles while the lemongrass oil was partially soluble and formed an albumen like chunk. […]

[2] = Dissolution of vitamin C derivative in aqueous silk solution
Excerpt: Ascorbyl tetraisopalmitate is a highly viscous, oil soluble liquid that might need the help of an emulsifier to possible dissolve in aqueous silk solution.

[3] = HPLC chromatograms of samples comprising vitamin C (degradation products); conditions: after 1 hour at ambient conditions without chemical stabilization
Description: No degradation products were visible.
No degradation products were visible. FIG. 59 is a table summarizing the vitamin C concentration in silk protein fragment-films (2% silk films air dried at RT) of the present disclosure. In FIG. 59 processing conditions included 100° C. extraction for 20 min, RT rinse, LiBr in 60° C. oven for 4-6 hours, FIG. 60 is a table summarizing the stability of vitamin C in chemically stabilized solutions. FIGS. 89A-89B are tables summarizing vitamin C stability in SPF gels without chemical stabilizers as compared to chemically stabilized vitamin C in competitive anti-aging skincare products. […] Without wishing to be bound by theory, it appears there is a relationship between vitamin C concentration, silk concentration, and gelation. An increase in vitamin C at a given concentration of silk will result in a longer time to gelation or inhibit gelation. This may be due to the vitamin C molecule physically blocking interaction between silk protein fragments or cross-linking of silk protein.

## O=C1O[C@H]([C@@H](O)CO)C(O)=C1O[C@H]1O[C@H](CO)[C@@H](O)[C@H](O)[C@H]1O [Ascorbic acid-2-glucoside, Ascorbic Acid-2-Glucoside]
[1]
  time to gel formation: 3 days

## CCCCCCCCC(CCCCCC)C(=O)OC[C@H](OC(=O)C(CCCCCC)CCCCCCCC)[C@H]1OC(=O)C(OC(=O)C(CCCCCC)CCCCCCCC)=C1OC(=O)C(CCCCCC)CCCCCCCC (some centres unmarked) [Ascorbyl tetraisopalmitate, Ascorbyl Tetraisopalmitate]
[2]
  ability to dissolve or be dispersed in aqueous silk solution: unable to dissolve or be dispersed

## O=C1O[C@H]([C@@H](O)CO)C([O-])=C1OP(=O)([O-])[O-].[Na+].[Na+].[Na+] [Sodium ascorbyl phosphate from Aromantic, Sodium Ascorbyl Phosphate]
[1]
  time to gel formation: failed to create a gel

## O=C1O[C@H]([C@@H](O)CO)C([O-])=C1OP(=O)([O-])[O-].[Na+].[Na+].[Na+] [Sodium ascorbyl phosphate from DSM, Sodium Ascorbyl Phosphate]
[1]
  time to gel formation: 28 days

## O=C1O[C@H]([C@@H](O)CO)C(O)=C1O [vitamin C, L-ascorbic acid]
[3]
  degradation products (HPLC): degradation products are visible
